The results in this text go back to US7214539B2, “Scintillation proximity test” (GE Healthcare Limited, priority 1997, dated 2007).

Test [1] concerns the target T1, HIV reverse transcriptase (Human immunodeficiency virus type 1 group M subtype B, UniProt P04585).
T1 construct: 0.05 units of HIV reverse transcriptase (Amersham T3610Y); purchased Amersham T3610Y
Nature of the test: Reverse transcriptase inhibition assay with streptavidin-coated polystyrene europium beads and CCD imaging. Format: biochemical. As to the method:
The reverse transcriptase enzyme SPA assay (Amersham NK8972) is a homogeneous assay system which uses a biotinylated DNA/RNA oligonucleotide enzyme substrate which is captured on streptavidin PVT SPA beads for quantification. In this assay, streptavidin-coated organic chelate beads prepared from polystyrene (PST) containing europium were used and the inhibition of reverse transcriptase by aurintricarboxylic acid determined.
Biotinylated, ready annealed primer/template was added to the wells of a white microplate. This was followed by [^3H]TTP (Amersham TRK576) in 127 nM mixture of dATP, dCTP, dGTP, and TTP buffered in tris/HCl pH 8.0, 80 mM KCl, 10 mM MgCl2, 10 mM DTT and 0.05% w/v Nonidet P40. Aurintricarboxylic acid at concentrations between 0.05 and 1 μM was added and the reactions were initiated by the addition of 0.05 units of HIV reverse transcriptase (Amersham T3610Y). Plates were incubated at 37° C. for 20 minutes and were terminated with the addition of stop reagent. 0.1 mg of streptavidin coated PST beads was added and the plates were incubated overnight at room temperature. The signal generated was detected using the CCD imaging system.

Test [2] deals with T1, HIV reverse transcriptase. Nature of the test: Reverse transcriptase enzyme SPA assay (conventional SPA, streptavidin PVT SPA beads). Format: biochemical. From the text:
The reverse transcriptase enzyme SPA assay (Amersham NK8972) is a homogeneous assay system which uses a biotinylated DNA/RNA oligonucleotide enzyme substrate which is captured on streptavidin PVT SPA beads for quantification. […]

As for `O=C(O)C1=CC(=C(c2ccc(O)c(C(=O)O)c2)c2ccc(O)c(C(=O)O)c2)C=CC1=O` [aurintricarboxylic acid], the IC50 in test [1] was found to be 230 nM; in test [2] it was 180 nM. In test [1] (1 μM of inhibitor, PST beads, CCD imaging), the “inhibition of reverse transcriptase activity” value is listed as 85%.
